Assay [1] has as its target T1, pseudo-kinase domain (JH2, amino-acids 536-812) of human Wild Type JAK2 (Homo sapiens, UniProt O60674, F794H/W659A/W777A).
T1 construct: pseudo-kinase domain (JH2, amino-acids 536-812 with 3 surface mutations W659A, W777A, F794H); His (C); purchased BPS Bioscience 79463; host or cells: baculovirus expression system
Description: JAK2 LanthaScreen JH2-WT Binding Assay. The conditions noted are these: JAK2 JH2-WT 0.145 nM, 50 nM tracer, 1 hour at 25° C.; read-out: JH2 BIND WT. The method, then: Example B. JAK2 LanthaScreen JH2-WT Binding Assay
JAK2 JH2-WT binding assay utilizes pseudo-kinase domain (JH2, amino-acids 536-812 with 3 surface mutations W659A, W777A, F794H) of human Wild Type JAK2 expressed as C-terminal His-Avi-tagged, biotinylated protein in a baculovirus expression system (BPS Bioscience, Catalog #79463). The assay was conducted in black 384-well polystyrene plates in a final reaction volume of 20 μL. JAK2 JH2-WT (0.145 nM) was incubated with compounds (100 nL serially diluted in DMSO) in the presence of 50 nM Fluorescent JAK2-JH2 Tracer (MedChem Express Catalog #HY-102055) and 0.25 nM Streptavidin-Tb cryptate (Cisbio Part #610SATLB) in assay buffer (50 mM Tris, pH=7.5, 10 mM MgCl2, 0.01% Brij-35, 0.1% BSA, 1 mM EGTA, 5% Glycerol and 5 mM DTT). Non-specific binding was accessed in the presence of 2 mM ATP. After incubation for 1 hour at 25° C., LanthaScreen signals were read on a PHERAstar FS plate reader (BMG LABTECH). Data was analyzed with IDBS XLfit and GraphPad Prism 5.0 software using a four parameter dose response curve to determine IC50 for each compound.

Assay [2] has as its target catalytic domain (JH1, amino acids 808-1132) of human JAK2 (Homo sapiens, UniProt O60674). Description: JAK2 HTRF Enzyme Activity Assay. Format: biochemical. As to conditions: ATP 30 µM, 60 minutes at 25° C.; read-out: V617F ENZ 30 UM. On the technique in general: Time-resolved FRET reads energy transfer from a long-lived donor to a nearby acceptor.
In assay [3] the target is T2, pseudo-kinase domain (JH2, amino-acids 536-812) of human V617F mutant JAK2 (Homo sapiens, UniProt O60674, F794H/V617F/W659A/W777A).
T2 construct: pseudo-kinase domain (JH2, amino-acids 536-812 with 3 surface mutations W659A, W777A, F794H); His (C); purchased BPS Bioscience 79498; host or cells: baculovirus expression system
Nature of the assay: JAK2 LanthaScreen JH2-V617F Binding Assay. The conditions noted are these: JAK2 JH2-V617F 0.26 nM, 50 nM tracer, 1 hour at 25° C.; read-out: JH2 BIND V617F. The procedure, abridged:
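Biotinylated His-Avi-tagged construct, baculovirus-expressed, at 0.26 nM; compounds competed against 50 nM fluorescent JH2 tracer with 0.25 nM streptavidin-Tb in Tris pH 7.5 buffer. Non-specific binding defined with 2 mM ATP. Read after 1 h at 25° C by TR-FRET; IC50 from four-parameter fit.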

For assay [4], the target named is T3, catalytic domain (JH1, amino acids 826-1132) of human JAK2 (Homo sapiens, UniProt O60674).
T3 construct: catalytic domain (JH1, amino acids 826-1132) of human JAK2; FLAG (N); biotin (biotinylated); purchased Carna Biosciences 08-445-20N; host or cells: baculovirus expression system
Nature of the assay: JAK2 LanthaScreen JH1 Binding Assay. As to conditions: JAK2 JH1 1.5 nM, 50 nM tracer, 2 hours at 25° C.; read-out: JH1 BIND. The method, then:
Example A. JAK2 LanthaScreen JH1 Binding Assay
JAK2 JH1 binding assay utilizes catalytic domain (JH1, amino acids 826-1132) of human JAK2 expressed as N-terminal FLAG-tagged, biotinylated protein in a baculovirus expression system (Carna Biosciences, Product #08-445-20N). The assay was conducted in black 384-well polystyrene plates in a final reaction volume of 20 μL. JAK2 JH1 (1.5 nM) was incubated with compounds (100 nL serially diluted in DMSO) in the presence of 50 nM fluorescent JAK2-JH1 tracer and 0.5 nM Streptavidin-Tb cryptate (Cisbio Part #610SATLB) in assay buffer (50 mM Tris, pH=7.5, 10 mM MgCl2, 0.01% Brij-35, 0.1% BSA, 1 mM EGTA, 5% Glycerol and 5 mM DTT). Non-specific binding was accessed in the presence of 2 mM ATP. After incubation for 2 hours at 25° C., LanthaScreen signals were read on a PHERAstar FS plate reader (BMG LABTECH). Data was analyzed with IDBS XLfit and GraphPad Prism 5.0 software using a four parameter dose response curve to determine IC50 for each compound.

A value given as a limit tells only on which side of the number the result lay.

T2 sequence (O60674 536-812 V617F/W659A/W777A/F794H): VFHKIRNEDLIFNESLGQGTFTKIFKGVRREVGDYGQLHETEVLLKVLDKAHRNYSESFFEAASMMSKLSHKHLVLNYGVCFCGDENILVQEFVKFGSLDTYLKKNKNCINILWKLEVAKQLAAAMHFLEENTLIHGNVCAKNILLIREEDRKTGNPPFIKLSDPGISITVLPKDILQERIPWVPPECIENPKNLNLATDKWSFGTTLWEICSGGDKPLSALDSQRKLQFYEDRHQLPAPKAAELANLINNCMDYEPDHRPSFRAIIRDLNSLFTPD
Chain of catalytic domain (JH1, amino acids 808-1132) of human JAK2 (O60674 808-1132 limits assumed): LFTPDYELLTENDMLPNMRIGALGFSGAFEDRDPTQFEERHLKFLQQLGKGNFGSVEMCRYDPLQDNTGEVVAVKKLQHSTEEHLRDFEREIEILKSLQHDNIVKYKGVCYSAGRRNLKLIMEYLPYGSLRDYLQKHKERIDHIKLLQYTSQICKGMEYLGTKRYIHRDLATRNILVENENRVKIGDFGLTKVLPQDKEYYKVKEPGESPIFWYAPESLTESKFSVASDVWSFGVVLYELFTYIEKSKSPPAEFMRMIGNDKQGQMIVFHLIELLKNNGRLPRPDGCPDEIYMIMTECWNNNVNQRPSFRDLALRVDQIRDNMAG
T3 sequence (O60674 826-1132): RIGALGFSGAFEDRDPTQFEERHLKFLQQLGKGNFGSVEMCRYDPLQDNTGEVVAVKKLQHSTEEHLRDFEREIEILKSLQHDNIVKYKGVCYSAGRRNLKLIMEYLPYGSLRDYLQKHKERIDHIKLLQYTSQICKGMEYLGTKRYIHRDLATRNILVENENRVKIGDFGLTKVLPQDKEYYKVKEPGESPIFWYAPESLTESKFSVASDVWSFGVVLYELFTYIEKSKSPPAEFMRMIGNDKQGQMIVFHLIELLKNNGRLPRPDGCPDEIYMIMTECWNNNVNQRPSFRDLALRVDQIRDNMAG
T1 sequence (O60674 536-812 W659A/W777A/F794H): as the sequence (O60674 536-812 V617F/W659A/W777A/F794H) above, with F82V counted along it

Consider `COC(=O)Nc1cc(Nc2cc3c(cn2)n(C)c(=O)n3[C@@H]2CC[C@@H](NC(=O)OC)C2)cc(C2CCCOC2)c1` (stereo partly drawn) [Example 21, Methyl (3-((1-((1R,3R)-3-((methoxycarbonyl)amino)cyclopentyl)-3-methyl-2-oxo-2,3-dihydro-1H-imidazo[4,5-c]pyridin-6-yl)amino)-5-(tetrahydro-2H-pyran-3-yl)phenyl)carbamate], for which the IC50 was at most 10 nM in assay [1], over 1000 nM in assay [2], at most 10 nM in assay [3] and over 1000 nM in assay [4].
For the molecule `COC(=O)N[C@@H]1CC[C@@H](n2c(=O)n(C)c3cnc(Nc4cccc(OC5CCC(C#N)CC5)n4)cc32)C1` (stereo partly drawn) [Example 22, Methyl ((1R,3R)-3-(6-((6-((4-cyanocyclohexyl)oxy)pyridin-2-yl)amino)-3-methyl-2-oxo-2,3-dihydro-1H-imidazo[4,5-c]pyridin-1-yl)cyclopentyl)carbamate], the IC50 in assay [1] is 10 to 100 nM; in assay [2], over 1000 nM; in assay [3] it was 10 to 100 nM; in assay [4] it was over 1000 nM.
Turning to `COC(=O)N[C@@H]1CC[C@@H](n2c(=O)n(C)c3cnc(Nc4cccc(Oc5ccc6ncccc6c5)n4)cc32)C1` [Example 23, Methyl ((1R,3R)-3-(3-methyl-2-oxo-6-((6-(quinolin-6-yloxy)pyridin-2-yl)amino)-2,3-dihydro-1H-imidazo[4,5-c]pyridin-1-yl)cyclopentyl)carbamate], the IC50 in assay [1] was 10 to 100 nM; in assay [2] it was over 1000 nM; in assay [3], 10 to 100 nM; in assay [4] it was over 1000 nM.
For the molecule `COC(=O)Nc1cc(Nc2cc3c(cn2)n(C)c(=O)n3[C@H]2C[C@H](NC(=O)C3CC3)C2)cc(-c2cnn(C)c2)c1` [Example 24, Methyl (3-((1-((1r,3r)-3-(cyclopropanecarboxamido)cyclobutyl)-3-methyl-2-oxo-2,3-dihydro-1H-imidazo[4,5-c]pyridin-6-yl)amino)-5-(1-methyl-1H-pyrazol-4-yl)phenyl)carbamate], the IC50 is 10 to 100 nM in assay [1], over 1000 nM in assay [2], 10 to 100 nM in assay [3] and over 1000 nM in assay [4].
In the case of `CCOC(=O)NC1CC2(C1)CC(n1c(=O)n(C)c3cnc(Nc4cc(NC(=O)OC)cc(-c5cnn(C)c5)c4)cc31)C2` (stereo not shown) [Example 25, Methyl (3-((1-(6-((ethoxycarbonyl)amino)spiro[3.3]heptan-2-yl)-3-methyl-2-oxo-2,3-dihydro-1H-imidazo[4,5-c]pyridin-6-yl)amino)-5-(1-methyl-1H-pyrazol-4-yl)phenyl)carbamate], the IC50 in assay [1] was 10 to 100 nM; in assay [2] it was over 1000 nM; in assay [3], 100 to 500 nM; in assay [4], over 1000 nM.
For the molecule `COC(=O)Nc1cc(Nc2cc3c(cn2)n(C)c(=O)n3C2CC3(CC(NS(=O)(=O)C4CC4)C3)C2)cc(-c2cnn(C)c2)c1` (stereo not shown) [Example 26, Methyl (3-((1-(6-(cyclopropanesulfonamido)spiro[3.3]heptan-2-yl)-3-methyl-2-oxo-2,3-dihydro-1H-imidazo[4,5-c]pyridin-6-yl)amino)-5-(1-methyl-1H-pyrazol-4-yl)phenyl)carbamate], the IC50 in assay [1] was 10 to 100 nM; in assay [2], over 1000 nM; in assay [3] it was 10 to 100 nM; in assay [4], over 1000 nM.
As for `COC(=O)Nc1cc(Nc2cc3c(cn2)n(C)c(=O)n3C2CC3(C2)CN(C(=O)OC)C3)cc(-c2cnn(C)c2)c1` [Example 27, Methyl 6-(6-((3-((methoxycarbonyl)amino)-5-(1-methyl-1H-pyrazol-4-yl)phenyl)amino)-3-methyl-2-oxo-2,3-dihydro-1H-imidazo[4,5-c]pyridin-1-yl)-2-azaspiro[3.3]heptane-2-carboxylate], the IC50 was 100 to 500 nM in assay [1], over 1000 nM in assay [2], 100 to 500 nM in assay [3] and over 1000 nM in assay [4].
Regarding `COC(=O)Nc1cc(Nc2cc3c(cn2)n(C)c(=O)n3[C@H]2C[C@H](C#N)C2)cc(-c2cnn(C)c2)c1` [Example 28, Methyl (3-((1-((1r,3r)-3-cyanocyclobutyl)-3-methyl-2-oxo-2,3-dihydro-1H-imidazo[4,5-c]pyridin-6-yl)amino)-5-(1-methyl-1H-pyrazol-4-yl)phenyl)carbamate], the IC50 in assay [1] is 10 to 100 nM; in assay [2], over 1000 nM; in assay [3], 100 to 500 nM; in assay [4], over 1000 nM.
For `COC(=O)Nc1cc(Nc2cc3c(cn2)n(C)c(=O)n3[C@H]2C[C@](C)(NC(=O)OC)C2)cc(-c2cnn(C)c2)c1` [Example 29, Methyl (3-((1-((1r,3r)-3-((methoxycarbonyl)amino)-3-methylcyclobutyl)-3-methyl-2-oxo-2,3-dihydro-1H-imidazo[4,5-c]pyridin-6-yl)amino)-5-(1-methyl-1H-pyrazol-4-yl)phenyl)carbamate], the IC50 in assay [1] was 100 to 500 nM; in assay [2], over 1000 nM; in assay [3], 100 to 500 nM; in assay [4] it was over 1000 nM.
As to `COC(=O)Nc1cc(Nc2cc3c(cn2)n(C)c(=O)n3[C@@H]2CCC(F)(F)C2)cc(-c2cnn(C)c2)c1` [Example 30, Methyl (R)-(3-((1-(3,3-difluorocyclopentyl)-3-methyl-2-oxo-2,3-dihydro-1H-imidazo[4,5-c]pyridin-6-yl)amino)-5-(1-methyl-1H-pyrazol-4-yl)phenyl)carbamate], the IC50 is 10 to 100 nM in assay [1], over 1000 nM in assay [2], 100 to 500 nM in assay [3] and over 1000 nM in assay [4].
On to `COC(=O)Nc1cc(Nc2cc3c(cn2)n(C)c(=O)n3[C@@H]2CC[C@H](F)C2)cc(-c2cnn(C)c2)c1` [Example 31, Methyl (3-((1-((1R,3S)-3-fluorocyclopentyl)-3-methyl-2-oxo-2,3-dihydro-1H-imidazo[4,5-c]pyridin-6-yl)amino)-5-(1-methyl-1H-pyrazol-4-yl)phenyl)carbamate], for which the IC50 in assay [1] was 10 to 100 nM; in assay [2], over 1000 nM; in assay [3], 10 to 100 nM; in assay [4], over 1000 nM.
For `COC(=O)N[C@@H]1CC[C@@H](n2c(=O)n(C)c3cnc(Nc4ccc5cc(-c6cnn(C)c6)ccc5n4)cc32)C1` [Example 32, Methyl ((1R,3R)-3-(3-methyl-6-((6-(1-methyl-1H-pyrazol-4-yl)quinolin-2-yl)amino)-2-oxo-2,3-dihydro-1H-imidazo[4,5-c]pyridin-1-yl)cyclopentyl)carbamate], the IC50 is 100 to 500 nM in assay [1], over 1000 nM in assay [2], 100 to 500 nM in assay [3] and over 1000 nM in assay [4].
For the molecule `COC(=O)N[C@@H]1CC[C@@H](n2c(=O)n(C)c3cnc(Nc4ccc5cccc(-c6cnn(C)c6)c5n4)cc32)C1` [Example 33, Methyl ((1R,3R)-3-(3-methyl-6-((8-(1-methyl-1H-pyrazol-4-yl)quinolin-2-yl)amino)-2-oxo-2,3-dihydro-1H-imidazo[4,5-c]pyridin-1-yl)cyclopentyl)carbamate], the IC50 in assay [1] is 10 to 100 nM; in assay [2], over 1000 nM; in assay [3], 10 to 100 nM; in assay [4] it was over 1000 nM.

The record behind these values is patent publication US20240317744A1, “Bicyclic Ureas As Kinase Inhibitors” (Incyte Corporation, priority 2023, published 2024).
